According to PubChem BioAssay (NCI):
Where “and” joins values, the source holds several entries; their conditions need not be identical. Identical values can stand only once.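 Each compound was tested at five concentrations against cells in 96-well plates for 48 hours. GI50 is the concentration that inhibits growth by half. TGI denotes the concentration required for complete inhibition of growth.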

How the values were obtained:
Assay in all cases: NCI tumour cell line growth inhibition, 48 h
[1] = test system: RXF 393 renal
[2] = test system: LXFL 529 NSCLC
[3] = test system: DMS 273 small cell lung
[4] = test system: SN12C renal
[5] = test system: CCRF-CEM leukemia
[6] = test system: KM12 colon
[7] = test system: UO-31 renal
[8] = test system: OVCAR-4 ovarian
[9] = test system: MDA-MB-231 breast
[10] = test system: PC-3 prostate

## C1CNCCNCCNCCN1
[1]
  TGI: > 100 µM
[2]
  TGI: > 100 µM
[3]
  TGI: > 100 µM
[4]
  TGI: > 100 µM
[5]
  TGI: > 100 µM
[6]
  TGI: > 100 µM
[7]
  TGI: > 100 µM

## N#CCc1ccc(C(C#N)/C(CCCC(=O)Nc2cccc([N+](=O)[O-])c2)=N\NC(=O)NN)cc1 (configuration not stated)
[1]
  TGI: > 100 µM
[8]
  TGI: > 100 µM
[2]
  TGI: > 100 µM
[3]
  TGI: > 100 µM
[4]
  TGI: > 100 µM
[5]
  TGI: > 100 µM
[6]
  TGI: > 100 µM
[7]
  TGI: > 100 µM

## Clc1ccc(-n2nnc(C3=NCCCN3)c2-c2ccccc2)cc1
[1]
  TGI: > 100 µM
[8]
  TGI: > 100 µM
[2]
  TGI: > 100 µM
[3]
  TGI: > 100 µM
[4]
  TGI: > 100 µM
[5]
  TGI: > 100 µM
[6]
  TGI: > 100 µM
[7]
  TGI: > 100 µM

## CC(=O)OCC1OC(OC2CC3C(C)(C)C(OC(C)=O)CC[C@]3(C)C3CCC45CC4(CC[C@H]5C(C)CC(O)[C@@H](O)C(C)(C)O)[C@]23C)C(O)C(O)C1O (some centres not stated)
[1]
  TGI: 13.9 µM
[8]
  GI50: 13.4 µM
  TGI: 12.7 µM and 26.1 µM
[2]
  GI50: 4.65 µM
  TGI: 11.3 µM and 16.2 µM
[3]
  TGI: 13.8 µM and 20.3 µM
[4]
  TGI: 13.2 µM and 19.1 µM
[5]
  GI50: 4.07 µM
  TGI: 14.8 µM and 15.4 µM
[6]
  GI50: 4.36 µM
  TGI: 14.2 µM and 14.1 µM
[7]
  GI50: 18.5 µM
  TGI: 12.3 µM and 32.5 µM

## Cc1cccc(C)c1NC(=O)CCCC(=O)CC(=O)/C=C/c1ccccc1
[1]
  TGI: > 100 µM
[8]
  TGI: > 100 µM
[2]
  TGI: > 100 µM
[3]
  TGI: > 100 µM
[4]
  TGI: > 100 µM
[5]
  TGI: > 100 µM
[6]
  TGI: > 100 µM
[7]
  TGI: > 100 µM

## Cc1nc2c(=O)[nH]c(=O)n(C)c2[nH]c1=O
[1]
  TGI: > 100 µM
[8]
  TGI: > 100 µM
[2]
  TGI: > 100 µM
[3]
  TGI: > 100 µM
[4]
  TGI: > 100 µM
[6]
  TGI: > 100 µM
[7]
  TGI: > 100 µM

## C=CC[C@H]1C[C@@]2(C)OC[C@H](C(C)C)N2C1=O
[1]
  TGI: > 100 µM
[8]
  TGI: > 100 µM
[3]
  TGI: > 100 µM
[4]
  TGI: > 100 µM
[5]
  TGI: > 100 µM
[6]
  TGI: > 100 µM

## CCCCCCCCCCC(C)CCCCCCC(=O)OCC(COP(=O)([O-])OCC[N+](C)(C)C)OC(=O)CCCCCCC(C)CCCCCCCCCC (configuration not stated)
[1]
  TGI: > 100 µM
[8]
  TGI: > 100 µM
[2]
  TGI: > 100 µM
[3]
  TGI: > 100 µM
[4]
  TGI: > 100 µM
[5]
  TGI: > 100 µM
[6]
  TGI: > 100 µM
[7]
  TGI: > 100 µM

## S=c1[nH]c(=S)c2sc(=S)n(-c3ccccc3)c2[nH]1
[1]
  TGI: > 100 µM
[8]
  TGI: > 100 µM
[2]
  TGI: > 100 µM
[3]
  TGI: > 100 µM
[4]
  TGI: > 100 µM
[5]
  TGI: > 100 µM
[6]
  TGI: > 100 µM
[7]
  TGI: > 100 µM

## S=c1nc(Oc2ccc(Cl)c(Cl)c2)[nH]c(=S)[nH]1
[8]
  TGI: > 82.2 µM
[2]
  TGI: > 100 µM
[9]
  TGI: > 100 µM
[3]
  TGI: 50 µM
[4]
  TGI: > 95.6 µM
[5]
  TGI: > 87.5 µM
[6]
  TGI: 33.6 µM
[7]
  TGI: 71.2 µM

## CN(C)CC(/C(Cc1ccccc1)=N\NC(=O)c1ccncc1)c1ccccc1 (configuration not stated)
[1]
  TGI: > 100 µM
[8]
  TGI: > 100 µM
[2]
  TGI: > 100 µM
[4]
  TGI: > 100 µM
[5]
  TGI: > 100 µM

## c1nc2cscc2c2cscc12
[1]
  TGI: > 100 µM
[8]
  TGI: > 100 µM
[2]
  TGI: > 100 µM
[3]
  TGI: > 100 µM
[4]
  TGI: > 100 µM
[5]
  TGI: > 100 µM
[6]
  TGI: > 100 µM
[7]
  TGI: > 100 µM

## COc1ccc(C2S/C(=C\c3cc(OC)c(OC)c(OC)c3)C(=O)N2NC(=O)Cc2ccccc2)cc1 (configuration not stated)
[1]
  TGI: > 100 µM
[8]
  TGI: > 100 µM
[2]
  TGI: > 100 µM
[3]
  TGI: > 100 µM
[4]
  TGI: > 100 µM
[5]
  TGI: > 100 µM
[6]
  TGI: > 100 µM
[7]
  TGI: > 100 µM

## O=[N+]([O-])c1ccc(Sc2c3ccccc3nc3ccccc23)cc1
[1]
  TGI: > 100 µM
[8]
  TGI: > 100 µM
[2]
  TGI: > 100 µM
[4]
  TGI: > 100 µM
[5]
  TGI: > 100 µM
[6]
  TGI: > 100 µM
[7]
  TGI: > 100 µM

## Cc1cc(O)c(C(=O)CC2(O)C(=O)Nc3c(Cl)cc(Cl)cc32)c(=O)o1 (configuration not stated)
[8]
  TGI: > 100 µM
[2]
  TGI: > 100 µM
[3]
  TGI: > 100 µM
[4]
  TGI: > 100 µM
[5]
  TGI: > 100 µM
[6]
  TGI: > 100 µM
[7]
  TGI: > 100 µM

## CC1(C)OC[C@@H]([C@@]2(CO[Si](C)(C)C(C)(C)C)CC=CC(=O)O2)O1
[1]
  GI50: 23.6 µM
  TGI: 56.3 µM
[8]
  GI50: 30.7 µM
  TGI: > 100 µM
[9]
  GI50: 27.2 µM
  TGI: 59.9 µM
[10]
  GI50: 19.6 µM
  TGI: 74.2 µM
[4]
  GI50: 19.5 µM
  TGI: 47.6 µM
[5]
  GI50: 26.2 µM
  TGI: > 100 µM
[6]
  GI50: 31.1 µM
  TGI: > 100 µM
[7]
  GI50: 19.2 µM
  TGI: 42.2 µM
